The test deals with HDAC1 (Homo sapiens, UniProt Q13547). To be noted: HDAC1 0.1 μM preincubated 10 min with 5 μM TSA, then 1b or 2b.

This note sets out measurements from paper PMC10124317 (Biochemistry, 2023).

Chain of HDAC1 (Q13547 whole entry): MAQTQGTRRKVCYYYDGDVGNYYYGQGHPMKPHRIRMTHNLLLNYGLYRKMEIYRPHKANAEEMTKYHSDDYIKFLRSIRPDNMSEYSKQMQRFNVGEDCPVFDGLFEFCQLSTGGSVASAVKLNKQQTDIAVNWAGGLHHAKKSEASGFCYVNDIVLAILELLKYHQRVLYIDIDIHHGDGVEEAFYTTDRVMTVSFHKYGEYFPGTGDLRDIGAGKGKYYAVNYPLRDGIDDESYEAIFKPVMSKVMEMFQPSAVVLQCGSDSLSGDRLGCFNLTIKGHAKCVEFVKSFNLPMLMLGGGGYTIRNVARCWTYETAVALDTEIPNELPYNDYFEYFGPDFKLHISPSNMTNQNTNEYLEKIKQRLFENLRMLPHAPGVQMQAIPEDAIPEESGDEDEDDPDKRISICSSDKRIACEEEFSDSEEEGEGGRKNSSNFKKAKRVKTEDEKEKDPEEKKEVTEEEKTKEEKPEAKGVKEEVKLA

As for trichostatin A [TSA], the “covalent modification of HDAC1 remaining after preincubation with TSA” value was ~ 10%.
